Measurements: PubChem BioAssay (NCI)
Values joined by “and” are separate entries in the source; they are usually repeats but may differ in a detail not shown here. Equal values may be shown once.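 Briefly, cells in 96-well plates were exposed to five compound concentrations for 48 h, and endpoints were estimated by linear interpolation. Abbreviation: GI50, concentration required for 50% inhibition of growth. The concentration for full growth arrest is given as TGI.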

Key:
Test in all cases: NCI tumour cell line growth inhibition, 48 h
HT29 colon = test system: HT29 colon
IGROV1 ovarian = test system: IGROV1 ovarian
MALME-3M melanoma = test system: MALME-3M melanoma
OVCAR-4 ovarian = test system: OVCAR-4 ovarian
PC-3 prostate = test system: PC-3 prostate
SF-268 CNS = test system: SF-268 CNS
SF-539 CNS = test system: SF-539 CNS
SK-MEL-28 melanoma = test system: SK-MEL-28 melanoma
SN12C renal = test system: SN12C renal
UO-31 renal = test system: UO-31 renal

Row | SMILES | GI50 (HT29 colon) | TGI (HT29 colon) | GI50 (IGROV1 ovarian) | TGI (IGROV1 ovarian) | GI50 (MALME-3M melanoma) | TGI (MALME-3M melanoma) | GI50 (OVCAR-4 ovarian) | TGI (OVCAR-4 ovarian) | GI50 (PC-3 prostate) | TGI (PC-3 prostate) | GI50 (SF-268 CNS) | TGI (SF-268 CNS) | GI50 (SF-539 CNS) [µM] | TGI (SF-539 CNS) [µM] | GI50 (SK-MEL-28 melanoma) | TGI (SK-MEL-28 melanoma) | GI50 (SN12C renal) | TGI (SN12C renal) | GI50 (UO-31 renal) | TGI (UO-31 renal)
1 | CCn1c(-c2nonc2N)nc2c(C#CC(C)(C)O)nc(O[C@@H](CN)c3ccccc3)cc21 | 0.119 µM | 0.735 µM | 0.0163 µM | 2.86 µM | 0.447 µM | 1.47 µM | 0.447 µM | 4.63 µM | 0.0858 µM | 9.94 µM | 0.574 µM | 1.98 µM | 0.116 | 0.874 | 0.399 µM | 1.19 µM | 0.208 µM | 2.82 µM | 3.52 µM | 7.37 µM
2 | CCCC[P+](c1ccccc1)(c1ccccc1)c1ccccc1 | 3.03 µM | > 100 µM | 11.4 µM | > 100 µM | 4.29 µM | > 100 µM | 2.43 µM | > 100 µM | 1.16 µM | 68.3 µM | 5.66 µM | > 100 µM | 7.09 | > 100 | 28.1 µM | > 100 µM | 4.35 µM | > 100 µM | 24.2 µM | > 100 µM
3 | O=C(NCCCNC(=O)OCc1ccc2c(Br)cc(Br)c(O)c2n1)OCc1ccc2c(Br)cc(Br)c(O)c2n1 | > 100 µM | > 100 µM | > 100 µM | > 100 µM | > 100 µM | > 100 µM | > 100 µM | > 100 µM | > 100 µM | > 100 µM | > 100 µM | > 100 µM | > 100 | > 100 | > 100 µM | > 100 µM | > 100 µM | > 100 µM | > 100 µM | > 100 µM
4 | CC1CCC2C(C)C3C(CC4C5CC=C6CC(OC7OC(CO)C(O)C(OC8OC(CO)C(O)C(O)C8O)C7OC7OC(C)C(O)C(O)C7O)CCC6(C)C5CCC43C)N2C1 (stereo not drawn) | > 2.5 µg/mL | 25.6 µM and > 2.5 µg/mL | > 2.5 µg/mL | 26.2 µM and > 2.5 µg/mL | > 2.5 µg/mL | 65.3 µM and > 2.5 µg/mL | > 2.5 µg/mL | 20.3 µM and > 2.5 µg/mL | > 2.5 µg/mL | 28.5 µM and > 2.5 µg/mL | > 2.5 µg/mL | 34.1 µM and > 2.5 µg/mL | – | 23.8 | > 2.5 µg/mL | 21.8 µM and > 2.5 µg/mL | > 2.5 µg/mL | 24.3 µM and > 2.5 µg/mL | > 2.5 µg/mL | 14.5 µM and > 2.5 µg/mL
5 | CCOC(=O)CNC(=O)CCCn1c(=O)c2c3ccccc3n(C)c2n2nnc(-c3ccccc3)c12 | > 50 µM | > 50 µM | 8.87 µM | 29.9 µM | > 50 µM | > 50 µM | > 50 µM | > 50 µM | 8.59 µM | > 50 µM | 14.2 µM | > 50 µM | 4.3 | 11.6 | > 50 µM | > 50 µM | > 50 µM | > 50 µM | 47.8 µM | > 50 µM
6 | CS(=O)c1ccc(-c2nc(-c3ccc(F)cc3)c(-c3ccncc3)[nH]2)cc1 (stereo not drawn) | 10.7 µM | > 89.4 µM | 21.9 µM | > 85.5 µM | 14.2 µM | 64.9 µM | 39.7 µM | > 100 µM | 35.6 µM | > 89.4 µM | 49.4 µM | > 100 µM | 44.8 | > 100 | 17.1 µM | 66.3 µM | 41.9 µM | > 100 µM | 20.1 µM | > 79.6 µM
7 | Cc1c2ncccc2nc2[nH]c3ccc(OCCN(C)C)cc3c12 | 0.961 µM | 6.05 µM | 2.13 µM | 16.5 µM | 2.42 µM | 13.5 µM | 1.84 µM | 8.75 µM | 1.86 µM | 10.9 µM | 2.16 µM | 15.4 µM | 2.58 | 13.9 | 4.4 µM | 19.1 µM | 2.5 µM | 28.5 µM | 1.84 µM | 11.5 µM
8 | CCOC(=O)N1C/C(=C/c2ccc(OC)cc2)C(=O)/C(=C/c2ccc(OC)cc2)C1 | 0.79 µM | 2.53 µM | 2.44 µM | > 21.2 µM | 4.76 µM | > 33.9 µM | 2.77 µM | > 31 µM | 2.53 µM | 8.61 µM | 3.58 µM | > 45.1 µM | 1.81 | 3.7 | 2.72 µM | 7.84 µM | 1.91 µM | 4.23 µM | 1.9 µM | 5.19 µM
9 | NC(N)=N/N=C/c1cccc(Cl)c1Cl | 2.31 µM | 5.98 µM | 11 µM | 25.6 µM | 4.62 µM | 18.1 µM | 13 µM | 26.8 µM | 10.8 µM | 23.6 µM | 11.8 µM | 25.5 µM | 15.6 | 31.2 | 4.24 µM | 14.7 µM | 3.92 µM | 16.3 µM | 10.1 µM | 22.7 µM
10 | CC(F)(F)c1cc(F)ccc1-c1sc2cc(O)ccc2c1Oc1ccc(/C=C/C(=O)O)cc1 | 11.8 µM | 36.1 µM | 11.6 µM | 29 µM | 11.6 µM | 44.4 µM | 12.1 µM | 33.2 µM | 7.7 µM | 24.7 µM | 7.31 µM | 24.1 µM | 5.95 | 21 | 5.79 µM | 18.9 µM | 14 µM | 46 µM | 12.9 µM | 31.5 µM
11 | COc1cc(-c2nc(SCC(=O)Nc3ccc(C(C)=O)cc3)[nH]c(=O)c2C#N)cc(OC)c1OC | 55.7 µM | > 100 µM | 53.4 µM | > 100 µM | 48.1 µM | > 100 µM | 82.9 µM | > 100 µM | 36.4 µM | > 100 µM | 68.7 µM | > 100 µM | 29.6 | > 100 | 47.5 µM | > 100 µM | 70.2 µM | > 100 µM | 36.6 µM | > 100 µM
12 | O=C(N=Nc1c(O)[nH]c2c(Cl)cc(Cl)cc12)c1ccncc1 | – | 75.7 µM | – | > 100 µM | – | 32.7 µM | – | 57.2 µM | – | 40.2 µM | – | – | – | 51.1 | – | 50.5 µM | – | 64.4 µM | – | > 100 µM
